Measured values from publication PMC4568418, “Identification of natural inhibitors of Entamoeba histolytica cysteine synthase from microbial secondary metabolites” (Frontiers in Microbiology, 2015).
Where two headings read alike, the source gives them in different places.

Key:
[1] = Cytotoxicity against MRC-5 cells (WST-8); type: cell-based; details: human fibroblast cells MRC-5, 2 days
Protocol: (§1) Human fibroblast cells, MRC-5, were plated on 96-well flat bottom plates at a density of 1.5 × 10^4 cells/well with 100 μl of MEM medium (Life Technologies, Grand Islands, NY, USA) containing 10% fetal bovine serum (Hana-nesco Bio, Tokyo, Japan) and 1% penicillin-streptomycin (Life Technologies) and incubated at 37°C with 5% CO2 for 2 days. Test compounds in 5 μl of 50% DMSO–H2O and 100 μl of MEM medium were mixed and added to each well. After 2 days cultivation at 37°C with 5% CO2, cell density and morphological changes were observed under a microscope. After observation, 10 μl of WST-8 solution (Dojindo, Kumamoto, Japan) was added to the cells and the plate was incubated at 37°C with 5% CO2 for 2 h. Then, absorbance at 450 nm was measured by spectrophotometer (SH-9000Lab, Corona Electric). Cytotoxicity was measured in duplicate. Staurosporine (our product, in Kitasato Natural Products Library) was used as a positive (cytotoxic) compound. […]; 0.075 to 10 μg/ml for deacetylkinamycin C, deoxyfrenolicin, nanaomycin A, and naphthacemycin A9; 3.1 to 200 μg/ml for tetracycline and patulin; 9.4 to 75 μg/ml for exophillic acid. IC50 values were calculated by the equation described in the reference ([Arita-Morioka et al., 2015]).

EhCS1 = EhCS1 (Entamoeba histolytica, UniProt O15570); experiment: CS inhibitory activity, recombinant EhCS1 (acid-ninhydrin cysteine detection); type: biochemical
EhCS1, sequence (O15570 entry or part of it): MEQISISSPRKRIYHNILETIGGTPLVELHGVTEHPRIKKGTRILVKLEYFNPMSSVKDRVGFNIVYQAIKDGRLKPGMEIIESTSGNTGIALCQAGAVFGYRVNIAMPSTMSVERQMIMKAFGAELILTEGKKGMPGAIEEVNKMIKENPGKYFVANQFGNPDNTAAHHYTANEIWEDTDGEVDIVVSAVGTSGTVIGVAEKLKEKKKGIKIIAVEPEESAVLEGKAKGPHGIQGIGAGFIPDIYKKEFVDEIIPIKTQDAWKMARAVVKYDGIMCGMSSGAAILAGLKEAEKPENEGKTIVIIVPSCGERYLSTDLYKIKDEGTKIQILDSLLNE
Protocol: (§2) The E. coli BL21 (DE3) cell introduced pET-EhCS (CS1, CS3) construct was used for protein expression. Each EhCSs protein was expressed by 1 mM isopropyl β-D-thiogalactopyranoside induction for 12 h at 30°C. After induction, the E. coli cell was harvested and re-suspended in the lysis buffer (50 mM Tris-HCl, pH 8.0, and 300 mM NaCl) containing 0.5 mM phenylmethylsulfonyl fluoride. The suspension was sonicated and centrifuged at 24,000 ×g for 30 min at 4°C. The histidine-tagged rEhCS proteins were purified from the supernatant fraction using a Ni^2+-NTA column and tagged proteins were eluted with 100–200 mM imidazole in 50 mM Tris-HCl, pH 8.0, and 300 mM NaCl. […].
(§3) For measurement of CS inhibitory activity, 10 μl of sample solution [dimethylsulfoxide (DMSO)/H2O = 1/1 solution] and 30 μl of reaction mixture, composed of 2 μl of 50 mM O-acetyL-L-serine, 2 μl of 50 mM Na2S, 12.5 μl of 200 mM Tris-HCl (pH 7.5), and 13.5 μl of water, was poured into each well of a flat-bottom 96-well plate. After 10 μl of enzyme solution (containing 0.1 μg of rEhCS1 or rEhCS3 in H2O) was added to each well, plates were incubated for 15 min at 37°C. The final concentrations of reagents in each well are; 2 mM O-acetyL-L-serine, 2 mM Na2S, and 50 mM Tris-HCl. The enzymatic reaction was stopped by adding 50 μl of acetic acid (>99.9%), and subsequently the reaction for cysteine detection was started by adding 50 μl of acid-ninhydrin reagent ([Gaitonde, 1967]). The mixture in each well was transferred to a 96-well PCR plate and heated at 95°C for 10 min. After the plate was cooled on ice, the mixture was transferred into a flat-bottom 96-well plate filled with 100 μl of ethanol (EtOH). Absorbance at 560 nm was measured by spectrophotometer (SH-9000Lab, Corona Electric, Ibaraki, Japan). […] To determine whether the sample interferes the acid-ninhydrin reagent reaction, 10 μl of sample solution, 10 μl of water, and 30 μl of 1 mM cysteine solution (cysteine hydrochloric acid salt in water) were mixed in a well of 96-well microtiter plate, and then 50 μl of acetic acid (>99.9%) and 50 μl of acid-ninhydrin reagent were added. The mixture was treated and measured the absorbance at 560 nm as above mentioned to check the effect of the sample to the color reaction.
(§4) Each 5 μl of DMSO solution (1 mg/ml, final concentration 100 μg/ml) of 316 library compounds and 5 μl of water (total 10 μl of DMSO/H2O = 1/1 solution per well) were poured into each well of a 96-well microtiter plate to screen for CS inhibitors. For screening microbial broths, 10 μl of the individual broth extract samples (50% EtOH solution) were poured into each well of a 96-well microtiter plate and dried up in vacuo. After drying, 10 μl of DMSO/H2O = 1/1 solution was added and dissolved. Samples showing more than 50% inhibitory activity and having no inhibitory activities against acid ninhydrin reaction were selected for further evaluation. The inhibition values were measured in duplicate or triplicate. […]; 2.0 to 250 μg/ml for deacetylkinamycin C, deoxyfrenolicin, nanaomycin A, tetracycline and patulin; 1.5 to 200 μg/ml for naphthacemycin A9; 3.1 to 400 μg/ml for xanthofulvin, terreinol and citromycetin; 0.06 to 200 μg/ml for exophillic acid.

[2] = tested on: E. histolytica clonal strain HM-1:IMSS cl6 trophozoites; experiment: In vitro anti-amebic activity against trophozoites (WST-1 viability); details: 48 h
Protocol: Trophozoites were harvested in 3–4 days after inoculation of 1/30 to 1/12 of the total culture volume. After the cultures were chilled on ice for 5 min, trophozoites were collected by centrifugation at 500 ×g for 10 min at 4°C and washed twice with BI-S-33 medium. The obtained trophozoites were suspended in BI-S-33 medium and approximately 1 × 10^4 trophozoites in 200 μl of BI-S-33 medium were poured into each well of a 96-well plate and incubated for 2 h. Subsequently, the medium was removed and 200 μl of BI-S-33 medium or cysteine-deprived BI-S-33 medium containing 1% (v/v) penicillin/streptomycin (Life Technologies) together with test compounds (final concentrations; 0.1, 1, 10, 100 μg/ml for kerriamycin B, kerriamycin C, aggreticin, and xanthofulvin; 0.1, 1, 10, 50, 100 μg/ml for the other compounds) was added to each well and incubated under anaerobic conditions for 48 h. After incubation, the medium was removed and 90 μl of pre-warmed Opti-MEM I (Life Technologies) and 10 μl of WST-1 solution (Dojindo) were added to each well. Viability of trophozoites was detected with absorbance at 450 nm (SH-9000Lab, Corona Electric). Cytotoxicity was measured in triplicate. […] Metronidazole (Sigma–Aldrich, MO, USA) was used as positive control.

EhCS3 = EhCS3 (Entamoeba histolytica, UniProt Q401L7); experiment: CS inhibitory activity, recombinant EhCS3 (acid-ninhydrin cysteine detection); type: biochemical
EhCS3, sequence (Q401L7 entry or part of it): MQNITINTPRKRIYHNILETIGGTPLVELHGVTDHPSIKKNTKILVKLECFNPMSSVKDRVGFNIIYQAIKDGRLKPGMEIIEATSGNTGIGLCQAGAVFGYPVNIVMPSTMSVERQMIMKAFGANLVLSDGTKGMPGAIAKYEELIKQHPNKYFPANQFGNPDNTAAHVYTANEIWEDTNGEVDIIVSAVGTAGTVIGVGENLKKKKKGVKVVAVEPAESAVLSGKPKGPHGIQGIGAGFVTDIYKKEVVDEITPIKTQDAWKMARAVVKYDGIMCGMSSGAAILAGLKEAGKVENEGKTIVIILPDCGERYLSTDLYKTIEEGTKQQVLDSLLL
Protocol: as §2, §3, §4

semaphorin = tested on: semaphorin; parameters: method as in Kumagai et al., 2003; details: ref Kumagai et al., 2003; cited from earlier work
MRC-5 cells = experiment: Cytotoxicity against MRC-5 cells (WST-8); type: cell-based; details: human fibroblast cells MRC-5, 2 days
Protocol: as §1

[3] = recombinant EhCS1, 15 min at 37°C, 2 mM O-acetyl-L-serine, 2 mM Na2S, read-out: IC50 CS1
[4] = Entamoeba histolytica, read-out: Cytotoxicity against Entamoeba histolytica IC50, Cys (+)
[5] = Entamoeba histolytica, read-out: Cytotoxicity against Entamoeba histolytica IC50, Cys (–)
[6] = recombinant EhCS3, 15 min at 37°C, 2 mM O-acetyl-L-serine, 2 mM Na2S, read-out: IC50 CS3

Row | Compound | IC50 (EhCS1; [3]) | IC50 (EhCS3; [6]) | IC50 at 2 days [1] | IC50 [2, 4] | IC50 [2, 5] | also measured
1 | C[C@@]1(O)[C@H](O)c2c(c3c(=O)c4cccc(O)c4c(=O)c=3c2=[N+]=[N-])[C@H](O)[C@H]1O [Deacetylkinamycin C] | – | – | – | 140 ± 13 µM | 18 ± 10 µM | IC50 [1]: 2.3 ± 0.1 µM; IC50 (EhCS1): 21 ± 2.4 µM; IC50 (EhCS3): 22 ± 3.7 µM
2 | CN(C)[C@@H]1C(O)=C(C(N)=O)C(=O)[C@@]2(O)C(O)=C3C(=O)c4c(O)cccc4[C@@](C)(O)[C@H]3C[C@@H]12 [Tetracycline, reference compound] | – | – | 430 ± 4.3 µM | – | – | IC50 (EhCS1): 170 ± 16 µM; IC50 (EhCS3): 190 ± 9.5 µM
3 | CCCCCCCCCc1cc(OC(=O)c2c(CCCCCCCCC)cc(O)cc2O[C@@H]2O[C@H](CO)[C@@H](O)[C@H](O)[C@H]2O)cc(O)c1C(=O)O [Exophillic acid] | 24 ± 2.9 µM | – | > 100 µM | > 140 µM | > 140 µM | inhibition against EhCS3 (EhCS3): no inhibition
4 | O=C1C=C2C(=CCOC2O)O1 (centres unmarked) [Patulin] | – | – | 110 ± 4.6 µM | > 650 µM | 110 ± 12 µM | IC50 (EhCS1): 490 ± 81 µM; IC50 (EhCS3): 470 ± 37 µM
5 | Cc1c(O)cc2c(c1O)CO[C@@]1(CCCO1)C2=O [Terreinol] | > 1600 µM | > 1600 µM | – | – | – | –
6 | CCC[C@H]1O[C@H](CC(=O)O)CC2=C1C(=O)c1c(O)cccc1C2=O [Deoxyfrenolicin] | 57 ± 2 µM | 53 ± 1.1 µM | 4.7 ± 0.2 µM | 1.3 ± 0.04 µM | 0.5 ± 0.1 µM | –
7 | Kerriamycin B | 0.63 ± 0.07 µM | 0.31 ± 0.01 µM | – | – | – | IC50 (MRC-5 cells): 21 ± 0.4 µM; IC50 ([2]; read-out: Cytotoxicity against Entamoeba histolytica IC50, Cys (+), BI-S-33 medium with cysteine, anaerobic): 26 ± 1.5 µM; IC50 ([2]; read-out: Cytotoxicity against Entamoeba histolytica IC50, Cys (–), cysteine-deprived BI-S-33 medium, anaerobic): 23 ± 0.3 µM

Second part, led by results:

Row | IC50 (EhCS1; [3]) | IC50 (EhCS3; [6]) | Compound | IC50 at 2 days [1] | IC50 [2, 4] | IC50 [2, 5] | also measured
8 | 0.98 ± 0.05 µM | 0.64 ± 0.1 µM | C[C@@H]1O[C@@H](O[C@@H]2C[C@H](c3ccc4c(c3O)C(=O)C3=C(C4=O)[C@@]4(O[C@H]5CC[C@H](O)[C@H](C)O5)C(=O)C[C@](C)(O)C[C@@]4(O)C=C3)O[C@H](C)[C@H]2O)CC[C@@H]1O [Aggreticin] | 23 ± 0.6 µM | 54 ± 4.8 µM | 18 ± 0.7 µM | –
9 | 53 ± 3.9 µM | 65 ± 4.4 µM | C[C@@H]1O[C@@H](CC(=O)O)CC2=C1C(=O)c1c(O)cccc1C2=O [Nanaomycin A] | 0.7 ± 0.04 µM | 12 ± 0.4 µM | 0.8 ± 0.04 µM | –
10 | 7.9 ± 1.3 µM | 110 ± 8.2 µM | CC(=O)c1c(C)c(/C(O)=C2\COc3cc(O)c(O)c(C(=O)O)c3C2=O)cc2c(=O)c3c(C(=O)O)c(O)c(O)cc3oc12 [Xanthofulvin] | – | > 170 µM | > 170 µM | semaphorin inhibitor IC50 (semaphorin): 0.09 µg/mL
11 | > 1400 µM | > 1400 µM | Cc1cc(=O)c2c(o1)-c1c(cc(O)c(O)c1C(=O)O)OC2 [Citromycetin] | – | – | – | –
12 | 75 ± 1.8 µM | > 490 µM | COc1cc(C)c(-c2cc(OC)cc3c2C(=O)C2=C(C3=O)C(C)(C)c3cc(O)cc(O)c3C2=O)c(OC)c1 [Naphthacemycin A9] | 16 ± 0.6 µM | > 390 µM | > 390 µM | inhibition of EhCS3 (in words) (EhCS3): no inhibition
